Test system: Lepeophtheirus Salmonis at Copeodid Stage (sea lice copepodids)
Assay: Activity in vitro against Lepeophtheirus salmonis at copepodid stage
Settings: copepodids 1 hour contact in sea water, then 48 h untreated sea water; no movement over 80 seconds; serial dilution (MED)
Protocol: 3—Activity In Vitro Against Lepeophtheirus Salmonis at Copeodid Stage
Sea lice copepodids were used to seed a 96-well plate containing the test substances to be evaluated for antiparasitic activity. Each compound was tested by serial dilution in order to determine its minimal effective dose (MED). Copepodids were left in contact with the test compound diluted in sea water for 1 hour. They were then incubated in untreated sea water for 48 h. Efficacy against sea lice was then confirmed if no copepodid moved over a period of 80 seconds.

**Q.** How did the “efficacy (EC80)” value turn out when `O=C(/C=C/c1ccc(C(=O)NC2CC2)c2ccccc12)NC(c1cccc(F)c1)C(F)(F)F` (stereo not drawn) [Example 1.65] was run?
**A.** 5 ppb

**Q.** How did the “efficacy (EC80)” value turn out when `O=C(/C=C/c1ccc(C(=O)NC2CC2)c2ccccc12)NC(c1cc(Cl)cc(Cl)c1)C(F)(F)F` (stereo not drawn) [Example 1.62] was run?
**A.** 50 ppb

**Q.** `O=C(/C=C/c1ccc(C(=O)NC2CC(F)(F)C2)c2ccccc12)NC(c1cccc(C(F)(F)F)c1)C(F)(F)F` (stereo not drawn) [Example 1.35] was tested. Which “efficacy (EC80)” value did it give?
**A.** 50 ppb

**Q.** `O=C(/C=C/c1ccc(C(=O)NC2CC2)c2ccccc12)NC(c1cccc(C(F)(F)F)c1)C(F)(F)F` (stereo not drawn) [Example 4.1] was tested. Which “efficacy (EC80)” value did it give?
**A.** 50 ppb

**Q.** `O=C(/C=C/c1ccc(C(=O)NC2CON(CC(F)(F)F)C2=O)c2ccccc12)NC(c1cccc(C(F)(F)F)c1)C(F)(F)F` (stereo not drawn) [Example 1.46] was tested. Which “efficacy (EC80)” value did it give?
**A.** 50 ppb

**Q.** Which “efficacy (EC80)” value does the source give for `CCNC(=O)c1ccc(/C=C/C(=O)NC(c2cccc(C(F)(F)F)c2)C(F)(F)F)c2ccccc12` (stereo not drawn) [Example 1.13] here?
**A.** 50 ppb

**Q.** With `CC1(NC(=O)c2ccc(/C=C/C(=O)NC(c3cccc(C(F)(F)F)c3)C(F)(F)F)c3ccccc23)CCC1` (stereo not drawn) [Example 1.41] as the compound, how does the “efficacy (EC80)” value read?
**A.** 5 ppb

**Q.** `O=C(/C=C/c1ccc(C(=O)NCC2CC2)c2ccccc12)NC(c1cccc(C(F)(F)F)c1)C(F)(F)F` (stereo not drawn) [Example 1.1, N-(cyclopropylmethyl)-4-[(1E)-2-({2,2,2-trifluoro-1-[3-(trifluoromethyl)phenyl]ethyl}carbamoyl)eth-1-en-1-yl]naphthalene-1-carboxamide] was tested. Which “efficacy (EC80)” value did it give?
**A.** 50 ppb

**Q.** For `O=C(/C=C/c1ccc(C(=O)NC2CC(F)C2)c2ccccc12)NC(c1cccc(C(F)(F)F)c1)C(F)(F)F` (stereo not drawn) [Example 1.36], which “efficacy (EC80)” value is on record?
**A.** 50 ppb

**Q.** For `O=C(/C=C/c1ccc(C(=O)NCc2ccco2)c2ccccc12)NC(c1cccc(C(F)(F)F)c1)C(F)(F)F` (stereo not drawn) [Example 1.3], which “efficacy (EC80)” value is on record?
**A.** 50 ppb

**Q.** With `N#CC1(NC(=O)c2ccc(/C=C/C(=O)NC(c3cccc(C(F)(F)F)c3)C(F)(F)F)c3ccccc23)CCC1` (stereo not drawn) [Example 1.44] as the compound, how does the “efficacy (EC80)” value read?
**A.** 50 ppb

**Q.** For `O=C(/C=C/c1ccc(C(=O)NC2CC2)c2cccnc12)NC(c1cccc(C(F)(F)F)c1)C(F)(F)F` (stereo not drawn) [Example 3.2], which “efficacy (EC80)” value is on record?
**A.** 50 ppb

**Q.** `O=C(/C=C/c1ccc(C(=O)NC2CC2)c2ccccc12)NC(c1ccc(Cl)c(Cl)c1)C(F)(F)F` (stereo not drawn) [Example 1.63] was tested. Which “efficacy (EC80)” value did it give?
**A.** 50 ppb

**Q.** For `N#CC1(NC(=O)c2ccc(/C=C/C(=O)NC(c3cccc(C(F)(F)F)c3)C(F)(F)F)c3ccccc23)CC1` (stereo not drawn) [Example 1.26], which “efficacy (EC80)” value is on record?
**A.** 0.5 ppb

**Q.** Which “efficacy (EC80)” value does the source give for `O=C(/C=C/c1ccc(C(=O)NC2CC2)c2ccccc12)NC(c1ccc(Cl)c(C(F)(F)F)c1)C(F)(F)F` (stereo not drawn) [Example 1.66] here?
**A.** 50 ppb

**Q.** Which “efficacy (EC80)” value does the source give for `Cc1cccc(C(NC(=O)/C=C/c2ccc(C(=O)NC3CC3)c3ccccc23)C(F)(F)F)c1` (stereo not drawn) [Example 1.58] here?
**A.** 50 ppb

**Q.** How did the “efficacy (EC80)” value turn out when `CC(C)NC(=O)c1ccc(/C=C/C(=O)NC(c2cccc(C(F)(F)F)c2)C(F)(F)F)c2ccccc12` (stereo not drawn) [Example 1.27] was run?
**A.** 50 ppb

**Q.** Which “efficacy (EC80)” value does the source give for `O=C(/C=C/c1ccc(C(=O)NC2CC2)c2ccccc12)NC(c1cc(Cl)c(Cl)c(Cl)c1)C(F)(F)F` (stereo not drawn) [Example 1.64] here?
**A.** 5 ppb

**Q.** How did the “efficacy (EC80)” value turn out when `O=C(/C=C/c1ccc(C(=O)NCC2CSC2)c2ccccc12)NC(c1cccc(C(F)(F)F)c1)C(F)(F)F` (stereo not drawn) [Example 1.43] was run?
**A.** 5 ppb

**Q.** For `O=C(/C=C/c1ccc(C(=O)NC2CC2)c2ccccc12)NC(c1cccc(Br)c1)C(F)(F)F` (stereo not drawn) [Example 1.56], which “efficacy (EC80)” value is on record?
**A.** 50 ppb

**Q.** With `CCN1OCC(NC(=O)c2ccc(/C=C/C(=O)NC(c3cccc(C(F)(F)F)c3)C(F)(F)F)c3ccccc23)C1=O` (stereo not drawn) [Example 1.34] as the compound, how does the “efficacy (EC80)” value read?
**A.** 50 ppb

**Q.** How did the “efficacy (EC80)” value turn out when `O=C(C=Cc1ccc(C(=O)NC2CC2F)c2ccccc12)NC(c1cccc(C(F)(F)F)c1)C(F)(F)F` (stereo not drawn) [Example 1.40] was run?
**A.** 50 ppb

**Q.** For `O=C(/C=C/c1ccc(C(=O)NC2CC2)c2ccccc12)NC(c1cccc(C(F)(F)F)c1)C(F)(F)F` (stereo not drawn) [Example 1.5], which “efficacy (EC80)” value is on record?
**A.** 5 ppb

**Q.** How did the “efficacy (EC80)” value turn out when `Cc1cc(/C=C/C(=O)NC(c2cccc(C(F)(F)F)c2)C(F)(F)F)sc1C(=O)NC1CC1` (stereo not drawn) [Example 2.4] was run?
**A.** 50 ppb

**Q.** Which “efficacy (EC80)” value does the source give for `O=C(/C=C/c1ccc(C(=O)NC2CSC2)c2ccccc12)NC(c1cccc(C(F)(F)F)c1)C(F)(F)F` (stereo not drawn) [Example 1.10] here?
**A.** 50 ppb

**Q.** For `O=C(/C=C/c1ccc(C(=O)NC2CC2)c2ccccc12)NC(c1cccc2ccccc12)C(F)(F)F` (stereo not drawn) [Example 1.82], which “efficacy (EC80)” value is on record?
**A.** 50 ppb

**Q.** Which “efficacy (EC80)” value does the source give for `O=C(/C=C/c1ccc(C(=O)NC2CC2)c2ccccc12)NC(c1cccc(OC(F)(F)F)c1)C(F)(F)F` (stereo not drawn) [Example 1.61] here?
**A.** 0.5 ppb

Reference: patent US9491941B2, “(Hetero) arylacrylamides for the control of ectoparasites” (Novartis Tiergesundheit AG, priority 2012, dated 2016)
